Source: patent US20180015098A1 (LAM Therapeutics, Inc., priority 2015, published 2018)

Test system: panel of 456 kinases
Test: Screen of apilimod against a comprehensive panel of 456 kinases (PIKfyve not included)
Format: binding
Settings: screening concentration 1 μM
Source text: Next, apilimod was screened against a comprehensive panel of kinases (PIKfyve not included).

Cc1cccc(/C=N/Nc2cc(N3CCOCC3)nc(OCCc3ccccn3)n2)c1 [apilimod]
binding to kinases of the panel: did not bind to any of the 456 kinases tested
